Reference: publication PMC8632988, “Inhibition of SYK and cSrc kinases can protect bone and cartilage in preclinical models of osteoarthritis and rheumatoid arthritis” (Scientific Reports, 2021)
“And” between values parts separate entries of the source, which are not always exact repeats. Equal entries are not always repeated. Where two headings read alike, the source gives them in different places.

Assays:
[1] = test system: B cells in human whole blood; assay: B-cell activation in human whole blood; assay type: cell-based; conditions: anti-IgD stimulation, 16 h, read-out: IC50, BCR-dependent (anti-IgD) activation of B cells
Experimental: The whole blood assay was performed at N. N. Blokhin National Medical Research Center of Oncology (NMRCO), Russia and approved by NMRCO ethics committee. Informed consent was obtained from all subjects. Red blood cells were lysed by incubation with NH4Cl buffer (0.8% NH4Cl and 0.1% EDTA in distilled water) for 5 min at 37 °C and were precipitated by centrifugation (1500 rpm). The precipitates were resuspended in RPMI-1640 with 10% human serum and 2 mM L-glutamine, after that the cells were again precipitated by analogous centrifugation and resuspended in RPMI-1640. […] Blood was then stained directly with PE-conjugated anti-CD69 (dilution 1:10) and APC-conjugated anti-CD19 (dilution 1:20) antibodies for 20 min at 4 °C. After that cells were precipitated by centrifugation (1500 rpm, 4 °C) and washed twice with phosphate-buffered saline (PBS). The cells were resuspended in PBS containing 1% BSA and subjected to flow cytometry on BD FACS Canto II (BD Biosciences, USA). The number of active cells was estimated as a ratio of CD69-positive cells bearing a marker of CD19 cells, or as a mean fluorescence intensity (MFI) of CD69 + cells after gating on the CD19-positive cells. For dose–response curve see Fig. S2.

[2] = Pharmacokinetics after single oral administration to rats; assay type: in vivo, rat; conditions: male Wistar rats; for AUCINF / AUClast / Cmax / Terminal t1/2 / concentration at 0.25 h / concentration at 0.5 h / concentration at 1 h / concentration at 2 h / concentration at 4 h / concentration at 8 h / concentration at 24 h / concentration at 48 h: plasma; for concentration at 0.25 h / concentration at 0.5 h / concentration at 1 h / concentration at 2 h / concentration at 4 h / concentration at 8 h / concentration at 24 h / concentration at 48 h: male, Wistar, rat, oral
Experimental: Experiments were performed at ChemPartner, Shanghai, China and approved by Institutional Ethics Committee (IEC) of ChemPartner. Male Wistar 10–12 weeks old rats with body weights of 185–220 g and male New Zealand rabbits with body weights of 2.0–2.3 kg were purchased from Shanghai SLAC Laboratory Animal Co., Ltd. MT-SYK-03 was administered to the three groups of rats (six rats per group) via oral gavage at 10 mL/kg concentration, and in rabbits 5 mL/kg concentration. Blood samples were kept on ice and centrifuged (2000 g, 4 ℃, 5 min) within 15 min post sampling.

[3] = Table S6, 100 mg/kg PO, individual Rat#1-6
[4] = Table S7, 100 mg/kg PO, individual Rat#7-12
[5] = Table S8, 200 mg/kg PO, individual Rat#13-18

Question: Which IC50 [1] does the source give for `COc1cc(Nc2ncnc(Nc3cc4c(cn3)NC(=O)C(C)(C)O4)n2)cc(OC)c1OC` [MT-SYK-03] here?
Answer: 550 nM

Question: What about the Plasma concentration ([2]; Table S6, 100 mg/kg PO, 0.25 h, individual Rat#1-6) of the same compound?
Answer: 257 ng/mL and 127 ng/mL and 313 ng/mL and 251 ng/mL and 240 ng/mL and 283 ng/mL

Question: What about the Plasma concentration ([2]; Table S6, 100 mg/kg PO, 0.5 h, individual Rat#1-6) of the same compound?
Answer: 331 ng/mL and 166 ng/mL and 419 ng/mL and 280 ng/mL and 345 ng/mL and 375 ng/mL

Question: What about the Plasma concentration ([2]; Table S6, 100 mg/kg PO, 1 h, individual Rat#1-6) of the same compound?
Answer: 470 ng/mL and 220 ng/mL and 487 ng/mL and 367 ng/mL and 392 ng/mL and 483 ng/mL

Question: And the Plasma concentration ([2]; Table S6, 100 mg/kg PO, 2 h, individual Rat#1-6)?
Answer: 529 ng/mL and 209 ng/mL and 501 ng/mL and 372 ng/mL and 256 ng/mL and 359 ng/mL

Question: What about the Plasma concentration ([2]; Table S6, 100 mg/kg PO, 4 h, individual Rat#1-6) of the same compound?
Answer: 196 ng/mL and 78.0 ng/mL and 171 ng/mL and 170 ng/mL and 226 ng/mL and 206 ng/mL

Question: What about the Plasma concentration ([2]; Table S6, 100 mg/kg PO, 8 h, individual Rat#1-6) of the same compound?
Answer: 47.2 ng/mL and 31.2 ng/mL and 92.6 ng/mL and 41.6 ng/mL and 88.8 ng/mL and 43.5 ng/mL

Question: And the Plasma concentration ([2]; Table S6, 100 mg/kg PO, 24 h, individual Rat#1-6)?
Answer: 0.818 ng/mL and BQL (2×) and 17.7 ng/mL and 1.57 ng/mL and 16.5 ng/mL

Question: What about the Plasma concentration ([2]; Table S6, 100 mg/kg PO, 48 h, individual Rat#1-6) of the same compound?
Answer: BQL (4×) and 1.55 ng/mL

Question: And the AUCINF [2, 3]?
Answer: 2434 ng·h/mL and 971 ng·h/mL and 3948 ng·h/mL and 2253 ng·h/mL and 2452 ng·h/mL and 2451 ng·h/mL

Question: What about the AUClast [2, 3] of the same compound?
Answer: 2423 ng·h/mL and 869 ng·h/mL and 3933 ng·h/mL and 2069 ng·h/mL and 2446 ng·h/mL and 2297 ng·h/mL

Question: What about the Cmax [2, 3] of the same compound?
Answer: 529 ng/mL and 220 ng/mL and 501 ng/mL and 372 ng/mL and 392 ng/mL and 483 ng/mL

Question: What about the “Terminal t1/2” value [2, 3] of the same compound?
Answer: 7.83 h and 2.28 h and 6.60 h and 7.22 h and 2.78 h and 6.45 h

Question: And the Plasma concentration ([2]; Table S7, 100 mg/kg PO, 8 h, individual Rat#7-12)?
Answer: 87.7 ng/mL and 152 ng/mL and 64.3 ng/mL and 178 ng/mL and 89.2 ng/mL and 82.6 ng/mL

Question: What about the Plasma concentration ([2]; Table S7, 100 mg/kg PO, 24 h, individual Rat#7-12) of the same compound?
Answer: 32.8 ng/mL and 4.94 ng/mL and 6.04 ng/mL and 1.11 ng/mL and 1.56 ng/mL

Question: What about the Plasma concentration ([2]; Table S7, 100 mg/kg PO, 48 h, individual Rat#7-12) of the same compound?
Answer: BQL

Question: What about the AUCINF [2, 4] of the same compound?
Answer: 4850 ng·h/mL and 3276 ng·h/mL and 4883 ng·h/mL and 4456 ng·h/mL and 3930 ng·h/mL

Question: And the AUClast [2, 4]?
Answer: 4843 ng·h/mL and 3238 ng·h/mL and 4878 ng·h/mL and 4452 ng·h/mL and 3910 ng·h/mL

Question: And the Cmax [2, 4]?
Answer: 1030 ng/mL and 770 ng/mL and 859 ng/mL and 876 ng/mL and 824 ng/mL

Question: What about the “Terminal t1/2” value [2, 4] of the same compound?
Answer: 5.58 h and 4.86 h and 3.71 h and 2.36 h and 2.34 h and 5.52 h

Question: And the Plasma concentration ([2]; Table S8, 200 mg/kg PO, 48 h, individual Rat#13-18)?
Answer: BQL

Question: What about the AUCINF [2, 5] of the same compound?
Answer: 6063 ng·h/mL and 6845 ng·h/mL and 7115 ng·h/mL and 6299 ng·h/mL and 10096 ng·h/mL

Question: What about the AUClast [2, 5] of the same compound?
Answer: 6055 ng·h/mL and 6836 ng·h/mL and 7107 ng·h/mL and 6076 ng·h/mL and 10087 ng·h/mL

Question: What about the Cmax [2, 5] of the same compound?
Answer: 1430 ng/mL and 1360 ng/mL and 1370 ng/mL and 998 ng/mL and 1320 ng/mL

Question: What about the “Terminal t1/2” value [2, 5] of the same compound?
Answer: 6.31 h and 5.70 h and 2.52 h and 2.40 h and 8.67 h and 4.91 h

Question: And the concentration at 0.25 h ([2]; 100 mg/kg, Table S6, 100 mg/kg PO, 0.25 h, mean of Rat#1-6, read-out: Plasma concentration, Mean)?
Answer: 245 ng/mL

Question: And the concentration at 0.5 h ([2]; 100 mg/kg, Table S6, 100 mg/kg PO, 0.5 h, mean of Rat#1-6, read-out: Plasma concentration, Mean)?
Answer: 319 ng/mL

Question: What about the concentration at 1 h ([2]; 100 mg/kg, Table S6, 100 mg/kg PO, 1 h, mean of Rat#1-6, read-out: Plasma concentration, Mean) of the same compound?
Answer: 403 ng/mL

Question: What about the concentration at 2 h ([2]; 100 mg/kg, Table S6, 100 mg/kg PO, 2 h, mean of Rat#1-6, read-out: Plasma concentration, Mean) of the same compound?
Answer: 371 ng/mL

Question: And the concentration at 4 h ([2]; 100 mg/kg, Table S6, 100 mg/kg PO, 4 h, mean of Rat#1-6)?
Answer: 175 ng/mL

Question: And the concentration at 8 h ([2]; 100 mg/kg, Table S6, 100 mg/kg PO, 8 h, mean of Rat#1-6)?
Answer: 57.5 ng/mL

Question: And the concentration at 24 h ([2]; 100 mg/kg, Table S6, 100 mg/kg PO, 24 h, mean of Rat#1-6)?
Answer: 9.15 ng/mL

Question: And the concentration at 48 h ([2]; 100 mg/kg, Table S6, 100 mg/kg PO, 48 h, individual Rat#1-6, read-out: Plasma concentration)?
Answer: 0.984 ng/mL

Question: What about the concentration at 48 h ([2]; 100 mg/kg, Table S6, 100 mg/kg PO, 48 h, mean of Rat#1-6, read-out: Plasma concentration, Mean) of the same compound?
Answer: 1.27 ng/mL

Question: And the concentration at 0.25 h ([2]; 100 mg/kg, Table S7, 100 mg/kg PO, 0.25 h, individual Rat#7-12, read-out: Plasma concentration)?
Answer: 400 ng/mL

Question: And the concentration at 0.25 h ([2]; 100 mg/kg, Table S7, 100 mg/kg PO, 0.25 h, mean of Rat#7-12, read-out: Plasma concentration, Mean)?
Answer: 415 ng/mL

Question: What about the concentration at 0.5 h ([2]; 100 mg/kg, Table S7, 100 mg/kg PO, 0.5 h, individual Rat#7-12, read-out: Plasma concentration) of the same compound?
Answer: 716 ng/mL

Question: What about the concentration at 0.5 h ([2]; 100 mg/kg, Table S7, 100 mg/kg PO, 0.5 h, mean of Rat#7-12, read-out: Plasma concentration, Mean) of the same compound?
Answer: 679 ng/mL

Question: What about the concentration at 1 h ([2]; 100 mg/kg, Table S7, 100 mg/kg PO, 1 h, individual Rat#7-12, read-out: Plasma concentration) of the same compound?
Answer: 830 ng/mL

Question: What about the concentration at 1 h ([2]; 100 mg/kg, Table S7, 100 mg/kg PO, 1 h, mean of Rat#7-12, read-out: Plasma concentration, Mean) of the same compound?
Answer: 870 ng/mL

Question: What about the concentration at 2 h ([2]; 100 mg/kg, Table S7, 100 mg/kg PO, 2 h, individual Rat#7-12, read-out: Plasma concentration) of the same compound?
Answer: 519 ng/mL

Question: What about the concentration at 2 h ([2]; 100 mg/kg, Table S7, 100 mg/kg PO, 2 h, mean of Rat#7-12, read-out: Plasma concentration, Mean) of the same compound?
Answer: 602 ng/mL

Question: What about the concentration at 4 h ([2]; 100 mg/kg, Table S7, 100 mg/kg PO, 4 h, mean of Rat#7-12) of the same compound?
Answer: 384 ng/mL

Question: And the concentration at 8 h ([2]; 100 mg/kg, Table S7, 100 mg/kg PO, 8 h, mean of Rat#7-12)?
Answer: 109 ng/mL

Question: What about the concentration at 24 h ([2]; 100 mg/kg, Table S7, 100 mg/kg PO, 24 h, mean of Rat#7-12) of the same compound?
Answer: 8 ng/mL

Question: What about the concentration at 48 h ([2]; 100 mg/kg, Table S7, 100 mg/kg PO, 48 h, mean of Rat#7-12, read-out: Plasma concentration, Mean) of the same compound?
Answer: 1.79 ng/mL

Question: What about the concentration at 0.25 h ([2]; 200 mg/kg, Table S8, 200 mg/kg PO, 0.25 h, individual Rat#13-18, read-out: Plasma concentration) of the same compound?
Answer: 489 ng/mL

Question: What about the concentration at 0.25 h ([2]; 200 mg/kg, Table S8, 200 mg/kg PO, 0.25 h, mean of Rat#13-18, read-out: Plasma concentration, Mean) of the same compound?
Answer: 425 ng/mL

Question: What about the concentration at 0.5 h ([2]; 200 mg/kg, Table S8, 200 mg/kg PO, 0.5 h, individual Rat#13-18, read-out: Plasma concentration) of the same compound?
Answer: 858 ng/mL

Question: What about the concentration at 0.5 h ([2]; 200 mg/kg, Table S8, 200 mg/kg PO, 0.5 h, mean of Rat#13-18, read-out: Plasma concentration, Mean) of the same compound?
Answer: 892 ng/mL

Question: And the concentration at 1 h ([2]; 200 mg/kg, Table S8, 200 mg/kg PO, 1 h, individual Rat#13-18, read-out: Plasma concentration)?
Answer: 984 ng/mL

Question: And the concentration at 1 h ([2]; 200 mg/kg, Table S8, 200 mg/kg PO, 1 h, mean of Rat#13-18, read-out: Plasma concentration, Mean)?
Answer: 1220 ng/mL
